The record followed here is patent US11427605B2, “Crystalline forms of 5-chloro-N4-[-2-(dimethylphosphoryl) phenyl]-N2-{2-methoxy-4-[4-(4-methylpiperazin-1-yl) piperidin-1-yl] phenyl} pyrimidine-2,4-diamine” (ARIAD Pharmaceuticals, Inc., priority 2014, dated 2022).

Series [1] can be described thus: Dehydration of Forms C and D (drying). Format: physicochemical. The procedure: In Table 25, a list of drying conditions for Form C are presented together with the final solid form.
In Table 26, a list of drying processes of Form D are presented. Form D under 5 mbar pressure and at 60° C. led to the formation of Form B after 24 h. In some instances, small quantities of Form C were visible on the XRPD patterns, even after 5 days of drying. This observation could be attributed to different particle morphology (fine particles vs. agglomerates/aggregates). […] In general, depending on the time and pressure, Forms B and C occur.

For series [2] the following is noted: for Temperature at which (partial) conversion to Form A was observed / Temperature at which conversion to Form A was complete: sample started as the labelled form; for Temperature of dehydration to anhydrous Form B / Temperature of solid-solid transition to Form A: ambient humidity, increasing temperature; for Temperature of solid-solid transition to Form A: not reversible.
Description: High resolution X-ray powder diffraction patterns disclosed herein were collected on a D8 Advance system in the Brag-Brentano geometry equipped with LynxEye solid state detector. The radiation used for collecting the data was CuKα1 (λ=1.54056 Å) monochromatized by germanium crystal. The patterns were collected in the range of 4-41.5°2θ, with a step in the range of 0.016 °2θ without further processing. All patterns were taken at room temperature, approximately 295 K. The material was placed in a boron glass capillary of 0.3 mm diameter. For variable humidity and variable temperature experiments disclosed herein, an ANSYCO HT chamber was used. The material was placed on a fixed sample holder that was mounted inside the chamber. The humidity was applied locally and varied from 10% to 80% (dew point). The temperature variation rate was 10° C./min.
Data was collected for Forms A, B, C, and D almost immediately after reaching the target temperature (within approximately 10 min).
For Form A, the temperatures used in the experiment were 25, 40, 60, 100, 120, 140, 150, 160, 170, 180, 190, and 200° C. Data collection lasted 20 min per temperature and the stabilization time in between was 10 min.
For Form B, the temperatures used in the experiment were 25, 40, 60, 100, 120, 140, 150, 155, 160, 165, 170, 180, and 190° C. Data collection lasted 45 min per temperature and the stabilization time in between was 10 min.
For Form C, the temperatures used in the experiment were 25, 40, 60, 70, 80, 100, 120, 140, 150, 155, 160, 165, 170, 175, 180, 190, and 200° C. Data collection lasted 40 min per temperature and the stabilization time in between was 10 min.
For Form D, the temperatures used in the experiment were 25, 35, 45, 55, 65, 75, 85, 100, 120, 140, 150, 155, 160, 165, 170, 175, 180, 190, and 200° C. Data collection lasted 10 min for temperatures 25-85° C. with a stabilization time of 1 min, and 40 min for temperatures 100-25° C. with a stabilization time of 10 min.

Another series is described as follows: Variable humidity XRPD. Format: physicochemical. The conditions noted are these: 30° C. The procedure: The temperature variation rate was 10° C./min.
The relative humidity was increased from the starting amount, brought up to the maximum, then dried back to the minimum value. The data collection time was 41 min at each step, time starting after equilibration of the relative humidity.
The peaks shifts were reversible at RH of about 30%. A sample of Form A was then exposed to 80% RH for 15 h. The peaks shifts had occurred after 90 min, and the extent of the shifts remained constant throughout the exposure at 80% RH for 15 h. Upon return to 10% RH, the peaks shifted to their original position. To investigate the amount of water adsorbed, a new sample of Form A was exposed for 2 h at 80% and a TGMS of this sample was measured.
For Form B, the relative humidity was measured at 30° C. The RH % values measured were 10, 30, 50, 60, 65, 70, 75, and 80%. […] At 80% RH the conversion to Form C was completed. Upon desorption, Form C dehydrates to Form B, starting at about 30% RH. At 10% RH the conversion to Form B was completed.
For Form C, a hydrate, the relative humidity was measured at 30° C. The experiment was performed starting at the maximum RH and dehydrated, then rehydrated back up to the maximum value. The RH % values measured were 10, 15, 20, 25, 30, 35, 40, 60, and 80%. Upon desorption, Form C dehydrated to Form B, starting at about 25% RH. At 10% RH, the conversion to Form B was complete. Upon sorption, Form B converted to Form C, starting at about 60% RH. At 80% RH the conversion to Form C was complete. The results are consistent with the corresponding experiments of Form B.
For Form D, a hydrate, the relative humidity was measured at 30° C. The experiment was performed starting at the maximum RH and dehydrated, then rehydrated back up to the maximum value. The RH % values measured were 10, 15, 20, 25, 30, 35, 40, 60, and 80%. […] Form C dehydrated to Form B, starting at about 20% RH. At 10% RH, the conversion to Form B was complete. Upon sorption, Form B converted to Form C, starting at about 40% RH. At 80% RH, the conversion to Form C was complete.

Setting [3] is: sample started as the labelled form.

Regarding `COc1cc(N2CCC(N3CCN(C)CC3)CC2)ccc1Nc1ncc(Cl)c(Nc2ccccc2P(C)(C)=O)n1` [Form C, brigatinib], in series [1] (30° C., 1.5 h, ambient pressure), the “final solid form after drying” value is on record as “appears to be stable”. Moreover, in series [1] (40° C., 1 h, ambient pressure), the “final solid form after drying” value is recorded as “converted to Form B”. Also, in series [2] (VT-XRPD), the “Temperatures at which the form is unstable” value is “higher than 25 °C”, the “Temperature at which (partial) conversion to Form A was observed” value came out at 120 °C and the “Temperature at which conversion to Form A was complete” value came to 155 °C. Also, in series [2], the “Temperature of dehydration to anhydrous Form B” value was “about 40 °C” and the “Temperature of solid-solid transition to Form A” value was “about 150 °C”. For the same molecule, in the series “Variable humidity XRPD” (setting [3]), the “RH at which Form B starts to convert to hydrated Form C (sorption)” value is listed as “about 60 % RH”, the “RH at which conversion to Form B was complete (desorption)” value came to 10 % RH and the “RH at which conversion to Form C was complete (sorption)” value was 80 % RH.
As for `COc1cc(N2CCC(N3CCN(C)CC3)CC2)ccc1Nc1ncc(Cl)c(Nc2ccccc2P(C)(C)=O)n1` [Form D, brigatinib], the “final solid form after drying” value is reported as “Form B” in series [1] (5 mbar, 60° C., 24 h); “mixture of Forms B+C” in series [1] (50 mbar, 60° C., 86 h); “Form B” in series [1] (50 mbar, 60° C., 110 h); “C + D” in series [1] (15 h at 60° C., 5 mbar); “B + C” in series [1] (20 h (RT), 5 mbar); “B + C” in series [1] (20 h at 60° C., 5 mbar). In addition, the “final solid form after drying” value is given as “B + C” in series [1] (28 h at 60° C., 5 mbar); “B + C” in series [1] (65 h at 60° C., 50 mbar); “B + C” in series [1] (86 h at 60° C., 50 mbar); “B + C” in series [1] (5 days at 60° C., 5 mbar); “B + C” in series [1] (8 days, closed vial at RT, ambient pressure). Moreover, the “Temperature at which Form D had converted (partially) to hydrated Form C” value in series [2] (VT-XRPD) stood at 35 °C. In series [2] (VT-XRPD), the “Temperature at which Form D had converted to dehydrated Form B” value was found to be 45 °C. Moreover, in series [2] (VT-XRPD), the “Temperatures at which the form is unstable” value was “higher than 25 °C”. Also, in series [2] (VT-XRPD), the “Temperature at which (partial) conversion to Form A was observed” value is 120 °C. The “Temperature at which conversion to Form A was complete” value in series [2] (VT-XRPD) turned out to be 150 °C. Moreover, the “Temperature of dehydration to anhydrous Form B” value in series [2] is “about 40 °C”. Besides, in series [2], the “Temperature of solid-solid transition to Form A” value was “about 150 °C”. The “RH at which Form B starts to convert to hydrated Form C (sorption)” value in the series “Variable humidity XRPD” (setting [3]) is given as “about 40 % RH”. The “RH at which Form C starts to dehydrate to Form B (desorption)” value in “Variable humidity XRPD” (setting [3]) is “about 20 % RH”. Moreover, the “RH at which conversion to Form B was complete (desorption)” value in the series “Variable humidity XRPD” (setting [3]) turned out to be 10 % RH. The “RH at which conversion to Form C was complete (sorption)” value in “Variable humidity XRPD” (setting [3]) was found to be 80 % RH. Besides, in the series “Variable humidity XRPD” (80% RH, freshly prepared Form D), the “Solid form at first measurements” value is “already partially transformed to Form C”.
